Measurements: patent publication US5310665A (Gist-brocades, N.V., priority 1990, dated 1994)

What was measured:
[1] = test system: naturally occurring glucose isomerases (various microorganisms); conditions: range over microorganisms; cited from earlier work
[2] = biological target: T1, Actinoplanes missouriensis glucose isomerase, wild type, SEQ ID NO: 1 (Actinoplanes missouriensis, UniProt P12851); assay: Steady-state kinetics of glucose isomerase (coupled sorbitol dehydrogenase assay for xylose; cysteine-carbazole or sorbitol dehydrogenase method for glucose); type: biochemical; conditions: 60° C., 10 mM Mg2+, pH 7.5
T1 construct: made in house; host or cells: E. coli K514

[3] = biological target: T2, Actinoplanes missouriensis glucose isomerase variant M88SH290N (M88S/H290N) (Actinoplanes missouriensis, UniProt P12851, H290N/M88S); assay: Steady-state kinetics of glucose isomerase mutant; type: biochemical; conditions: 60° C., 10 mM Mg2+, pH 7.5
T2 construct: made in house; host or cells: E. coli K514
Experimental: (§1) Alternatively, the D-fructose produced during the isomerization reaction can be determined enzymatically using sorbitol dehydrogenase and NADH.
(§2) As a measure of specificity the quotient is Vmax /Km is sometimes used (Wells et al., ibid). […] These temperatures are chosen for practical reasons.
(§3) Activities were measured on purified enzyme. The coupled sorbitol dehydrogenase assay was used for xylose, the cysteine-carbazole or discontinuous sorbitol dehydrogenase method was used for glucose.

[4] = biological target: T3, Actinoplanes missouriensis glucose isomerase variant H290N (Actinoplanes missouriensis, UniProt P12851, H290N); assay: Steady-state kinetics of glucose isomerase mutant; type: biochemical; conditions: 60° C., 10 mM Mg2+, pH 7.5
T3 construct: made in house; host or cells: E. coli K514
Experimental: as §1, §2, §3

T3 sequence (P12851 2-394 H290N limits assumed): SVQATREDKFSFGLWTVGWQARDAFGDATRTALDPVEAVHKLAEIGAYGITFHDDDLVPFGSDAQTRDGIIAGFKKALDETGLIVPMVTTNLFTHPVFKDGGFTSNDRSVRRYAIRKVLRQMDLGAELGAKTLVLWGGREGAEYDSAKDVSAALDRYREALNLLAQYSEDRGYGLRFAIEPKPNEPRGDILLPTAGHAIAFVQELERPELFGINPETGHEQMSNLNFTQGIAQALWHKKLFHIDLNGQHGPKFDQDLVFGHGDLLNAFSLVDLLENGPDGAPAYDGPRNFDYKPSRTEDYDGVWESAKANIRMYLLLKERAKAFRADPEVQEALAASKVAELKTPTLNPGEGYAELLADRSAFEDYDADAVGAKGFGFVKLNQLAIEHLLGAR
T2 sequence (P12851 2-394 M88S/H290N limits assumed): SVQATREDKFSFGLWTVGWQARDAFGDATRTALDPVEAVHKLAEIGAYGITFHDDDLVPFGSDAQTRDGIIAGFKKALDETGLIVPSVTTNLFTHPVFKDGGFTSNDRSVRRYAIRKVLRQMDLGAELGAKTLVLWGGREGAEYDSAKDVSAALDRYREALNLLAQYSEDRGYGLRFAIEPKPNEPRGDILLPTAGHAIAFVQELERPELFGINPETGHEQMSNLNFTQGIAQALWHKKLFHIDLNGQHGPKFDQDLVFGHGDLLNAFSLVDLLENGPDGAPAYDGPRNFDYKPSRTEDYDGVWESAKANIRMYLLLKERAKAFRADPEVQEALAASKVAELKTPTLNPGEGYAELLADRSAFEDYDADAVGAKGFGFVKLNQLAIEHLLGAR
T1 sequence (P12851 2-394 limits assumed): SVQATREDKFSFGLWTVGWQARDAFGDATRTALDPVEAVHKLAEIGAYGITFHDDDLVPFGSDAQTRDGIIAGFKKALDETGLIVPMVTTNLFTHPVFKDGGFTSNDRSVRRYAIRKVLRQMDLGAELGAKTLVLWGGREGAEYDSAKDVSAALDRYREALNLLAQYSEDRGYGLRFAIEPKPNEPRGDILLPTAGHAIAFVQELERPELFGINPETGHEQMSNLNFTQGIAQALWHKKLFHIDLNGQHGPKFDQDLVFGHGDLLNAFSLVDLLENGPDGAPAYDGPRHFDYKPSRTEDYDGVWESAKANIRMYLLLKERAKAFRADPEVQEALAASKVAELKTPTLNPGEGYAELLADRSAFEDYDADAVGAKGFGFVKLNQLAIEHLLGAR

Structure (SMILES) | Km [1] | Vmax gl [2] | Vmax gl [3] | Vmax gl [4]
O=C[C@H](O)[C@@H](O)[C@H](O)CO [xylose] | 5 to 93 mM |  |  | 
O=C[C@H](O)[C@@H](O)[C@H](O)[C@H](O)CO [glucose] |  | 34.800 µmol/min/mg | 49.770 µmol/min/mg | 41.800 µmol/min/mg
